The source made the active and inactive calls.
Assays:
[1] = inhibitors of intracellular T. cruzi replication, confirmation, NIH3T3 host cells, beta-gal luminescence (AID 2044); assay type: functional, cell-based;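 note: intracellular parasites grown in NIH/3T3 mouse fibroblasts as host cells; luminescent beta-galactosidase reporter signal from transgenic T. cruzi replicating inside host cells; inhibitors lower the luminescence signal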
[2] = cytotoxicity toward NIH3T3 fibroblasts, dose response, counter-screen, cell-based, ATP luminescence, mouse fibroblasts (AID 2010); assay type: functional;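 note: cells exposed to compound for about 90 hours before reading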
[3] = molecular target: Sphingosine 1-phosphate receptor 4 (Homo sapiens, UniProt O95977); test: Fluorescence dose response cell-based high throughput screening assay for antagonists of the Sphingosine 1-Phosphate Receptor 4 (S1P4). [Related pubchem assays: 1524 (Confirmation in triplicates.), 1510 (Primary screen.)]; assay type: functional
[4] = molecular target: Sphingosine 1-phosphate receptor 1 (Homo sapiens, UniProt P21453); assay type: functional;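 note: Tango beta-arrestin reporter U2OS cells stimulated with S1P near its EC80; inhibitor potency meaning antagonism of receptor activation by the natural agonist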
[5] = molecular target: T1, Microphthalmia-associated transcription factor (Homo sapiens, UniProt O75030); test: TRPM1 promoter luciferase signal decrease, dose response, MITF inhibitor project, cell-based, SK-MEL-5, cherry-picked, set 3 (AID 493073); assay type: functional
T1 sequence (O75030 whole entry): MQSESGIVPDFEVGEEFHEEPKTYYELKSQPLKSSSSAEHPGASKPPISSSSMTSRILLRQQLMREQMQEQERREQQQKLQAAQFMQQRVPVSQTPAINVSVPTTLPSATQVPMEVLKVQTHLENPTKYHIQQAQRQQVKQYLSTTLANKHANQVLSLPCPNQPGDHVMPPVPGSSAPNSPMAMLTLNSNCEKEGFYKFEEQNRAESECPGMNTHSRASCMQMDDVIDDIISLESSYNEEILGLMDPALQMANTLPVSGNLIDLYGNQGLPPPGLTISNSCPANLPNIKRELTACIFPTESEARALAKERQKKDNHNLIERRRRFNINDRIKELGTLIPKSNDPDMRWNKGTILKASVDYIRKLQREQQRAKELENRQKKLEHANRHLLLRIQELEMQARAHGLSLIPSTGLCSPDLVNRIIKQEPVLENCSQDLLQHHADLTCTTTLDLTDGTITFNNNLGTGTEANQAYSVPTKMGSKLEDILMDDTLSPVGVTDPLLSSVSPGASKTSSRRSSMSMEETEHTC

Paired box protein Pax-8 = Paired box protein Pax-8 (Homo sapiens, UniProt Q06710); test: inhibitors of PAX8-driven TPO luciferase reporter, dose response, RMG-I cells, cherry-pick (AID 687027); assay type: functional, cell-based;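 note: luciferase reporter driven by Pax8 target thyroperoxidase promoter measured by SteadyGlo luminescence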
[6] = inhibitors of PGC1a acetylation in cells, dose response, cell-based, cherry-picked samples (AID 720514); assay type: functional;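 note: potency may reflect raised or lowered acetylation signal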
[7] = A549 cell cytotoxicity, dose response, cytotoxicity control, plate reader, cherry-pick, antagonist series (AID 743412); assay type: functional, cell-based
[8] = HepG2 cell cytotoxicity, dose response, cytotoxicity control, plate reader, cherry-pick, antagonist series (AID 743416); assay type: functional, cell-based
[9] = LGR2 antagonists, dose response, cell-based, HEK293, CRE-luciferase reporter, cherry pick, set 2 (AID 743343); assay type: functional;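 note: transfected cells were stimulated with diluted bursicon conditioned medium after compound addition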
[10] = MC4R antagonists, dose response, counter-screen for LGR2 antagonist project, cell-based, plate reader, cherry pick (AID 743444); assay type: functional;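 note: transfected HEK 293 cells stimulated with alpha-MSH peptide; potency of inhibitors of the alpha-MSH evoked signal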
[11] = HEK293 cell cytotoxicity, dose response, cytotoxicity control, plate reader, cherry-picked samples (AID 743446); assay type: functional, cell-based
NS3 = NS3 (Hepatitis C virus, UniProt A3EZJ3); test: PubChem AID 2173; set-up: species or system Hepacivirus hominis
[12] = molecular target: Induced myeloid leukemia cell differentiation protein Mcl-1 (Homo sapiens, UniProt Q07820); assay type: functional
[13] = molecular target: DNA (cytosine-5)-methyltransferase 1 (Homo sapiens, UniProt P26358); test: DNMT1 methyltransferase inhibitors, confirmation, biochemical, fluorescent molecular beacon (AID 602386); assay type: functional
[14] = molecular target: T2, Small ubiquitin-related modifier 1 (Homo sapiens, UniProt P63165); test: inhibitors of SUMO1 peptide binding, dose response, biochemical, fluorescence polarization, uHTS hits (AID 624382); assay type: functional; settings: read-out: IC50_Mean
[15] = molecular target: T2, Small ubiquitin-related modifier 1; test: inhibitors of SUMO1 partner interactions, dose response, biochemical, FRET (AID 624383); assay type: functional; settings: read-out: IC50_Mean
Albumin = Albumin (Bos taurus, UniProt P02769); test: Counterscreen for inhibitors of T-cell receptor (TCR)-CD3 interaction: Fluorescence-based biochemical high throughput dose response assay to identify inhibitors of T-cell receptor (TCR)-CD3 interaction using a TAMRA-labeled BSA probe.; assay type: functional
Hexokinase HKDC1 = molecular target: T3, Hexokinase HKDC1 (Homo sapiens, UniProt Q2TB90); test: HKDC1 hexokinase inhibitors, dose response, biochemical, W721R variant (AID 504729); assay type: functional
T3 sequence (Q2TB90 whole entry): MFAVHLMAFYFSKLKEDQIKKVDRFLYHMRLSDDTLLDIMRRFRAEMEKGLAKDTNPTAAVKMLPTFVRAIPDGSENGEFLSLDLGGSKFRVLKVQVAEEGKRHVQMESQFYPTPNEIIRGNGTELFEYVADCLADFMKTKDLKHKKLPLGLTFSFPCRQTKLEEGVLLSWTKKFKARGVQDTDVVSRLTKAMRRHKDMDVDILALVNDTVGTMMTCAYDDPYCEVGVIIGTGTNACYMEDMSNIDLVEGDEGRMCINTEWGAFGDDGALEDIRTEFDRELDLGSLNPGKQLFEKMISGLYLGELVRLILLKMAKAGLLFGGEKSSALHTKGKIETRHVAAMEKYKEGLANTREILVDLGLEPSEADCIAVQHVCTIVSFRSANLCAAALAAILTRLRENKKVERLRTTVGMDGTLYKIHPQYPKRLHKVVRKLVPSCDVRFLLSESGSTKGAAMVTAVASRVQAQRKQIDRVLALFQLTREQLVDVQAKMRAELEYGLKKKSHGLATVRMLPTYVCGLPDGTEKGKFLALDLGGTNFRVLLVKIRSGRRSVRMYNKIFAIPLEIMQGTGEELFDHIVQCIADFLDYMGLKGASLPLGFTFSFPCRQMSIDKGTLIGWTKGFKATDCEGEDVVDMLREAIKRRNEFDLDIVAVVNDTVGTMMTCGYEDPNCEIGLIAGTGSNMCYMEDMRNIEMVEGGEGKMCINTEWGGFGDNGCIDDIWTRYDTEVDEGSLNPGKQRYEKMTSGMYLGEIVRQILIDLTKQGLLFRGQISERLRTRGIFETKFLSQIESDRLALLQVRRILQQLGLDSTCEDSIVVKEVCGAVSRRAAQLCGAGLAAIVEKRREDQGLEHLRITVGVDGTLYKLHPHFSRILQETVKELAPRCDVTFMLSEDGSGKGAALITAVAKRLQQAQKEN

[16] = molecular target: T4, Heat shock factor protein 1 (Mus musculus, UniProt P38532); test: HSF1 potentiators in luciferase reporter cells, confirmation, cell-based, NIH3T3, luminescence, dose retest (AID 435004); assay type: functional;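 note: stress induced by proteasome inhibitor MG132 added 30 min after compound; luciferase reporter driven by HSF1 response element in NIH3T3 cells; actives raise luminescence as potentiators of the MG132 stress response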
T4 sequence (P38532 whole entry): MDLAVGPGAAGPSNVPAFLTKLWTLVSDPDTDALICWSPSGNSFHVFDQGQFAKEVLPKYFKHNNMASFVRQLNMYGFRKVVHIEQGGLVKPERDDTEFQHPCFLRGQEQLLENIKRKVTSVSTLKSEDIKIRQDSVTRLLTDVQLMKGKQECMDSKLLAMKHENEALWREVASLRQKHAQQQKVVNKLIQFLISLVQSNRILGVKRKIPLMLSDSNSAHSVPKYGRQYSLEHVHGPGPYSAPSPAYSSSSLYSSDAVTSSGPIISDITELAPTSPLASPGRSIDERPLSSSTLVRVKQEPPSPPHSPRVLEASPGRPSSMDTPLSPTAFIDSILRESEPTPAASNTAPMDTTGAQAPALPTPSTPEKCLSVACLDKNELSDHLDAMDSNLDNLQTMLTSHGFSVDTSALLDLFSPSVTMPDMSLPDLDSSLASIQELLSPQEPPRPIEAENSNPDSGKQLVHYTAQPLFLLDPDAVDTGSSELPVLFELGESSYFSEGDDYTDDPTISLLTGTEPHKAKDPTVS

[17] = molecular target: T5, Corticotropin-releasing factor receptor 2/Corticotropin-releasing factor-binding protein (Homo sapiens, UniProt P24387+Q13324); test: activators of CRF receptor 2 with binding protein – uHTS hits, confirmation (AID 602473); assay type: functional; settings: read-out: EC50_Mean
T5 sequence (Q13324 whole entry): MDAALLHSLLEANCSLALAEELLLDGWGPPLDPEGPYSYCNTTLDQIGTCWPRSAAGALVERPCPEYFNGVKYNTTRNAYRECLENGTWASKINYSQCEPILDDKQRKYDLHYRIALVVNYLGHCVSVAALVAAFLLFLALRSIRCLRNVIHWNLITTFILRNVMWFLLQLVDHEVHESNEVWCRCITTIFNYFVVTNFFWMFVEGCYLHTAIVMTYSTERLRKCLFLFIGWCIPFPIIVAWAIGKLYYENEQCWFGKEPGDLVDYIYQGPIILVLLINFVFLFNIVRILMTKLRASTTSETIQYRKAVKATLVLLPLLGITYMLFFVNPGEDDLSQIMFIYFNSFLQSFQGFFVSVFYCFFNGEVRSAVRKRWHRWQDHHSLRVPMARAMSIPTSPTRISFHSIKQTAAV
T5 sequence (P24387 whole entry): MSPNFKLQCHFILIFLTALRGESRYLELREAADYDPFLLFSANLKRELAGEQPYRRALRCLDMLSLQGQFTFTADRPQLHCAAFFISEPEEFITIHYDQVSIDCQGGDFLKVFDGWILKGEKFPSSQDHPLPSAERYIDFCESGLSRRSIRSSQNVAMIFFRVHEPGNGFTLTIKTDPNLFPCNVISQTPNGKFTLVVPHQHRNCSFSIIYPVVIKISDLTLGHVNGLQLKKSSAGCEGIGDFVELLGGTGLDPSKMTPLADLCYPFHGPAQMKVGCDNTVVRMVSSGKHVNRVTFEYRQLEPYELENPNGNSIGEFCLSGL

Sequence of NS3 (A3EZJ3 whole entry): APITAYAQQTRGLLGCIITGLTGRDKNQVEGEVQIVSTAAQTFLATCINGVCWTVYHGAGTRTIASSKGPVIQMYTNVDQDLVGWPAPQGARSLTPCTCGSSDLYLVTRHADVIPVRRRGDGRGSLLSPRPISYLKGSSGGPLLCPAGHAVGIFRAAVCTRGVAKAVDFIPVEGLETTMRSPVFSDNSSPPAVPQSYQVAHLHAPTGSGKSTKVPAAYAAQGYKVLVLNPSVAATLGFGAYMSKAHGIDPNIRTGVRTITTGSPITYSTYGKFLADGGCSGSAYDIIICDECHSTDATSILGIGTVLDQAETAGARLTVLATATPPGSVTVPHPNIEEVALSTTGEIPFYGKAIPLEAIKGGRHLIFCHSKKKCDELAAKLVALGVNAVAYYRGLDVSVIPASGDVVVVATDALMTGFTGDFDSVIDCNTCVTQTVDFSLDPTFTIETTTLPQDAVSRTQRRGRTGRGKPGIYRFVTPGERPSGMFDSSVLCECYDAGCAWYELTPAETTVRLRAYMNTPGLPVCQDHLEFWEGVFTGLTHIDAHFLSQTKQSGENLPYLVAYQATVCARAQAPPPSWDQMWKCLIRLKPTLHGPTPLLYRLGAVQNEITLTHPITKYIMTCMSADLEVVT
T2 sequence (P63165 whole entry): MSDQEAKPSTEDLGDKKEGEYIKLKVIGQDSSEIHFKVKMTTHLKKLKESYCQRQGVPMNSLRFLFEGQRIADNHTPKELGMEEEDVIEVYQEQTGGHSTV
Sequence of Paired box protein Pax-8 (Q06710 whole entry): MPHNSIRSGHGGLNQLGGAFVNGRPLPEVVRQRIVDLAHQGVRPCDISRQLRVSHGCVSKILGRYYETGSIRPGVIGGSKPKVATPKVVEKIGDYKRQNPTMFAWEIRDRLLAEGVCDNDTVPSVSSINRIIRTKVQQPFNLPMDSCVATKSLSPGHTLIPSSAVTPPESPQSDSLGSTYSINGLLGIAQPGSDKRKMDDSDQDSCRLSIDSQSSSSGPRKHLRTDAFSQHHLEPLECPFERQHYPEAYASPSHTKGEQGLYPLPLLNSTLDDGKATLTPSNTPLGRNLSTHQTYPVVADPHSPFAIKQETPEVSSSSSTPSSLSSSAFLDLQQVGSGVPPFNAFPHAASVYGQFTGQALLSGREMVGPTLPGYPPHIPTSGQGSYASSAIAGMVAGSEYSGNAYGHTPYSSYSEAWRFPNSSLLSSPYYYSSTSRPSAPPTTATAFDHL
Sequence of Sphingosine 1-phosphate receptor 1 (P21453 whole entry): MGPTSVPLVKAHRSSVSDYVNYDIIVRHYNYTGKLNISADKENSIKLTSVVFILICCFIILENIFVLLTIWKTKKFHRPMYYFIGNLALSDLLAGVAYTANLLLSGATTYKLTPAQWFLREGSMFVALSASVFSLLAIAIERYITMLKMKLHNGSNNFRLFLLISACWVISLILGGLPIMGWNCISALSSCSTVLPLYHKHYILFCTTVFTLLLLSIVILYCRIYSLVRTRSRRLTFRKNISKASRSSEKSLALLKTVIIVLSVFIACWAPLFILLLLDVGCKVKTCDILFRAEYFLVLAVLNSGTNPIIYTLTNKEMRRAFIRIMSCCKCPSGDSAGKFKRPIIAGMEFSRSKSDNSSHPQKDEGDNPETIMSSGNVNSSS
Sequence of Sphingosine 1-phosphate receptor 4 (O95977 whole entry): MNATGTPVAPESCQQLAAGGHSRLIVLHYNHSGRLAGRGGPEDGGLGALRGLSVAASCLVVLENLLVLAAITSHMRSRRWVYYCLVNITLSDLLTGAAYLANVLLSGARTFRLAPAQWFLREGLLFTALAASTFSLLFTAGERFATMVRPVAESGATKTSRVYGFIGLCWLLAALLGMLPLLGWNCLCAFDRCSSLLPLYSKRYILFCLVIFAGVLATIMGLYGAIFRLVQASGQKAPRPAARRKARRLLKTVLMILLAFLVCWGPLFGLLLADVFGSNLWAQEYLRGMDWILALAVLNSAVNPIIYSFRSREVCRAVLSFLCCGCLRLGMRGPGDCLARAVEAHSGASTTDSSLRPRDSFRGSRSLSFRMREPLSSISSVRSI
Sequence of Induced myeloid leukemia cell differentiation protein Mcl-1 (Q07820 whole entry): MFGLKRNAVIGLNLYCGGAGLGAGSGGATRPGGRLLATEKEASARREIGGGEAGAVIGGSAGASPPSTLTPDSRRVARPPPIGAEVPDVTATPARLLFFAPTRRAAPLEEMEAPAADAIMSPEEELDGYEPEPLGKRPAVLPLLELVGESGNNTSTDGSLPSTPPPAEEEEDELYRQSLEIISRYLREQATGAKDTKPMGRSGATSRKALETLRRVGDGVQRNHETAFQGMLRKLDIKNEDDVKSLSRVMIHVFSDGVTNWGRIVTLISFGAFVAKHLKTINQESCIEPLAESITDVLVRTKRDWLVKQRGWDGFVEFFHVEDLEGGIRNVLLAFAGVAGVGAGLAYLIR
Sequence of Albumin (P02769 whole entry): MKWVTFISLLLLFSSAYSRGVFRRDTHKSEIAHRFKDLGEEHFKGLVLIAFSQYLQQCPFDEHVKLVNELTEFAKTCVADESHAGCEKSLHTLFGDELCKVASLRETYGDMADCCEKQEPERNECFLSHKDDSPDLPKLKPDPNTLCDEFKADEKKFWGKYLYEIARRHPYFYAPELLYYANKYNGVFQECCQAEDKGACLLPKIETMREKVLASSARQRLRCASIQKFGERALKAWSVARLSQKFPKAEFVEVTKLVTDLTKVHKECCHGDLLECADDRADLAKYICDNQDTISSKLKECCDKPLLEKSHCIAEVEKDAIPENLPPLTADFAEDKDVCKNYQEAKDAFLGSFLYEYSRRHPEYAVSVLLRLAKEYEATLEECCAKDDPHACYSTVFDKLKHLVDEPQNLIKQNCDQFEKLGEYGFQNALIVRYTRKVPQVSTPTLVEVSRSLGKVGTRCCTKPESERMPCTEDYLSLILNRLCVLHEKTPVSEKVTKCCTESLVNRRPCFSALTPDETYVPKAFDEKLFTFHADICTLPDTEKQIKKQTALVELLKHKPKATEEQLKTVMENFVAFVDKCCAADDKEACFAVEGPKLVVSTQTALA
Sequence of DNA (cytosine-5)-methyltransferase 1 (P26358 whole entry): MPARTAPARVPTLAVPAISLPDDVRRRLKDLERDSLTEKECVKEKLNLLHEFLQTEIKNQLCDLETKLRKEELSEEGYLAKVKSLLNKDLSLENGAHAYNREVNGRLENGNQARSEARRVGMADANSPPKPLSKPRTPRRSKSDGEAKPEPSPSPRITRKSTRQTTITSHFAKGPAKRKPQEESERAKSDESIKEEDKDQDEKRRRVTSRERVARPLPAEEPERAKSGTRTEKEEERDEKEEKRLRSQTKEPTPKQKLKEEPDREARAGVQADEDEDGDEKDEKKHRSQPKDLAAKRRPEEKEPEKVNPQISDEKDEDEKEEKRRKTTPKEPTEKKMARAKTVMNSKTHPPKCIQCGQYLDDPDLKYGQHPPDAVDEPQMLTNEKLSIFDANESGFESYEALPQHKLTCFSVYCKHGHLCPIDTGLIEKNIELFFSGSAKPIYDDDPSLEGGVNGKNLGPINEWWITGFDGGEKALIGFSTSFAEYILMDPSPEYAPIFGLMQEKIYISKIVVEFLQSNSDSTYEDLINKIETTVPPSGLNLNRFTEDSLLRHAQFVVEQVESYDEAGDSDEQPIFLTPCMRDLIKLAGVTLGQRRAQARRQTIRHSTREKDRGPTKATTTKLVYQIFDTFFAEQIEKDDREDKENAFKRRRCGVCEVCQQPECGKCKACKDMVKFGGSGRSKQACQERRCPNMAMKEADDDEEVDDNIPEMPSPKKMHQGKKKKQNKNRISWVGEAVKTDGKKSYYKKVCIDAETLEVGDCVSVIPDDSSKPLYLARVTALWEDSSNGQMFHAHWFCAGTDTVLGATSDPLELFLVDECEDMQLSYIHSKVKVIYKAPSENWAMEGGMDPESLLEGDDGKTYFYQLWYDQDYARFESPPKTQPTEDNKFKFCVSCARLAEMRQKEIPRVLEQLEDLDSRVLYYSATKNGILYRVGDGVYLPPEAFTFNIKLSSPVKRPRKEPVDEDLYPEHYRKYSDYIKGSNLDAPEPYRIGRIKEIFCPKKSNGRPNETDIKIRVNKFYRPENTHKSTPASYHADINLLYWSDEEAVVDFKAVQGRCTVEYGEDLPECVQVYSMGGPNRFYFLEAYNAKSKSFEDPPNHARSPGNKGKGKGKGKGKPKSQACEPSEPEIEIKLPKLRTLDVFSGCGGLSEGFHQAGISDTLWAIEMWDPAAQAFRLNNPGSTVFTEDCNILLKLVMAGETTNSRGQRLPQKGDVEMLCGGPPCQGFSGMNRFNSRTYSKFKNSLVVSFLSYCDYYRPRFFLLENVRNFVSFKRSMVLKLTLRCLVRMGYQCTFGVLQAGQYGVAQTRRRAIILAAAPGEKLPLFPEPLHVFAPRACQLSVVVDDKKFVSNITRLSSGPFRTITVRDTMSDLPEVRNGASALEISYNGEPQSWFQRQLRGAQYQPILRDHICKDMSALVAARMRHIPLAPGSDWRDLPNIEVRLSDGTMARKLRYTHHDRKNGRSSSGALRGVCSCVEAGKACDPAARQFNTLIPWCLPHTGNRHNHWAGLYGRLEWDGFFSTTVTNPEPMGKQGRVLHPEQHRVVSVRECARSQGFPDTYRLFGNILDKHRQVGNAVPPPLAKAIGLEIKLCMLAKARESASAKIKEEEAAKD

O=C1CN(C(=O)Cn2ncc(Cl)c(Cl)c2=O)c2ccccc2N1
13.6 µM (not active): IC50 [4]
active: EC50 [1] 2.11 µM | EC50 [2] 2.61 µM | IC50 [3] 3.18 µM | AC50 [5] 8.67 µM | AC50 (Paired box protein Pax-8) 2.19 µM | AC50 [6] 4.16 µM | AC50 [7] 11.8 µM | AC50 [8] 25.6 µM | AC50 [9] 18.7 µM | AC50 [10] 15.4 µM | AC50 [11] 8.59 µM

O=C(O)c1ccccc1/C=N/NC(=O)c1cc(-c2ccco2)nc2ccccc12
active: IC50 (NS3) 7.35 µM | IC50 [12] 2.54 µM | IC50 [13] 5.4 µM | IC50 [15] 9.51 µM
inactive: IC50 [14] > 66.6 µM | IC50 (Albumin) > 94.1 µM

O=C(CSc1nnc(CCCN2C(=O)c3cccc4cccc(c34)C2=O)n1-c1ccccc1)N1CCN(CCO)CC1
active: IC50 (Hexokinase HKDC1) 9.27 µM

Cc1cccc(N2C(=O)C(O)=C(C(=O)c3cccs3)C2c2ccc(C(C)C)cc2)n1 (configuration not stated)
inactive: EC50 [16] > 260 µM
active: IC50 (NS3) 5.88 µM | EC50 [17] 11.3 µM

Source: ChEMBL document CHEMBL1201862, “PubChem BioAssay data set” (2004)
